Entries after “also recorded” stand apart in the source; their conditions may differ. One block for each compound: values may come before it.
How the values were obtained:
Assay type in all cases: physicochemical
[1] = Solubility / in vitro dissolution in biorelevant media
Description: In vitro dissolution profiles were analyzed for Form A and Form F. In vitro drug dissolution and release testing can provide insight into a drug's in vivo performance such as bioavailability.
Because Forms A and F were selected for further pharmaceutical development, dissolution tests were performed on these forms. The tests were performed at different pH and in biorelevant media: hydrochloric acid (HCl), fasted state simulated gastric fluid (FaSSGF), fasted state simulated intestinal fluid (FaSSIF), and fed state simulated intestinal fluid (FeSSIF) (75 rpm, 900 mL). Three 10 mg and 50 mg capsules were analyzed as shown below in Table 18. The capsules include those including only Form A, 90% Form A spiked with 10% of Form F, and Form F. The results are shown in FIGS. 14A-14C (10 mg capsules) and FIGS. 15A-15C (50 mg capsules).

[2] = Stability of crystalline forms as evidenced by DSC and TGA thermograms; details: relative to the other crystalline forms
Description: Approximately 1-2 mg of material was weighed into an aluminum DSC pan with a pin hold. The sample pan then placed on Differential Scanning Calorimetry (TA Discovery 2500) with protected nitrogen flow rate of 50 mL/min. The sample was heated at rate of 10° C./min from 30° C. to 250° C. during which heat flow was recorded.
Approximately 2 mg of material was weighed into an open aluminum pan and loaded into a simultaneous thermogravimetric/differential thermal analyzer (TG Discovery 5500) and held at room temperature. Nitrogen flow rate for balance was 10 mL/min and nitrogen flow rate for sample was 25 mL/min. The sample was then heated at a rate of 10° C./min from 30° C. to 300° C. during which time the change in sample weight was recorded.

[3] = Dynamic vapor sorption (DVS) isotherm analysis
Description: Approximately 10 mg of material was analyzed using an automated dynamic vapor sorption analyzer (Intrinsic/Advantage) at 25° C. Method 1 for anhydrate undergo humidity cycle of 40-0-95-0-40% RH with stage step of 10% RH during which mass change was recorded. Method 2 for hydrate undergo humidity cycle of 40-95-0-95-40% RH with stage step of 10% RH during which mass change we recorded. Equilibrium set up was 0.002 dm/dt (%/min). Minimum dm/dt stability during in 60 min and maximum dm/dt stability duration is 360 min.

[4] = DVS Cycle 1, target 40.0 % P/Po, 24.8° C.
[5] = DVS Cycle 1, target 50.0 % P/Po, 24.8° C.
[6] = DVS Cycle 1, target 60.0 % P/Po, 24.8° C.
[7] = DVS Cycle 1, target 70.0 % P/Po, 24.8° C.
[8] = DVS Cycle 1, target 80.0 % P/Po, 24.8° C.
[9] = DVS Cycle 1, target 90.0 % P/Po, 24.8° C.
[10] = DVS Cycle 1, target 95.0 % P/Po, 24.8° C.
[11] = DVS Cycle 2, target 40.0 % P/Po, 24.8° C.
[12] = DVS Cycle 2, target 50.0 % P/Po, 24.8° C.
[13] = DVS Cycle 2, target 60.0 % P/Po, 24.8° C.
[14] = DVS Cycle 2, target 70.0 % P/Po, 24.8° C.
[15] = DVS Cycle 2, target 80.0 % P/Po, 24.8° C.
[16] = DVS Cycle 2, target 90.0 % P/Po, 24.8° C.
[17] = DVS Cycle 2, target 95.0 % P/Po, 24.8° C.
[18] = DVS Cycle 1, target 0.0 % P/Po, 24.9° C.
[19] = DVS Cycle 1, target 10.0 % P/Po, 24.9° C.
[20] = DVS Cycle 1, target 20.0 % P/Po, 24.9° C.
[21] = DVS Cycle 1, target 30.0 % P/Po, 24.9° C.
[22] = DVS Cycle 1, target 40.0 % P/Po, 24.9° C.
[23] = DVS Cycle 2, target 0.0 % P/Po, 24.9° C.
[24] = DVS Cycle 2, target 10.0 % P/Po, 24.9° C.
[25] = DVS Cycle 2, target 20.0 % P/Po, 24.9° C.
[26] = DVS Cycle 2, target 30.0 % P/Po, 24.9° C.
[27] = DVS Cycle 2, target 40.0 % P/Po, 24.9° C.

solubility [1]: poorly soluble
Compound: O=C1CCc2c(Oc3ccc4c(c3)C[C@@H](c3nc(-c5ccc(F)cc5)c[nH]3)CO4)ccnc2N1 [Compound I, (S)-5-((3-(4-(4-fluorophenyl)-1H-imidazol-2-yl)chroman-6-yl)oxy)-3,4-dihydro-1,8-naphthyridin-2(1H)-one]

Change In Mass (%) - ref, Desorption ([3]; DVS Cycle 1, target 0.0 % P/Po, 24.8° C.): 0.002%
Change In Mass (%) - ref, Desorption ([3]; DVS Cycle 1, target 10.0 % P/Po, 24.8° C.): 0.350%
Change In Mass (%) - ref, Desorption ([3]; DVS Cycle 1, target 20.0 % P/Po, 24.8° C.): 0.941%
Change In Mass (%) - ref, Desorption ([3]; DVS Cycle 1, target 30.0 % P/Po, 24.8° C.): 3.649%
Change In Mass (%) - ref, Desorption [3, 4]: 4.700%
Change In Mass (%) - ref, Hysteresis [3, 4]: 0.077%
Change In Mass (%) - ref, Sorption [3, 4]: 4.623%
Change In Mass (%) - ref, Desorption [3, 5]: 5.395%
Change In Mass (%) - ref, Hysteresis [3, 5]: 0.283%
Change In Mass (%) - ref, Sorption [3, 5]: 5.112%
Change In Mass (%) - ref, Desorption [3, 6]: 5.814%
Change In Mass (%) - ref, Hysteresis [3, 6]: 0.339%
Change In Mass (%) - ref, Sorption [3, 6]: 5.475%
Change In Mass (%) - ref, Desorption [3, 7]: 6.213%
Change In Mass (%) - ref, Hysteresis [3, 7]: 0.368%
Change In Mass (%) - ref, Sorption [3, 7]: 5.845%
Change In Mass (%) - ref, Desorption [3, 8]: 6.535%
Change In Mass (%) - ref, Hysteresis [3, 8]: 0.341%
Change In Mass (%) - ref, Sorption [3, 8]: 6.194%
Change In Mass (%) - ref, Desorption [3, 9]: 6.824%
Change In Mass (%) - ref, Hysteresis [3, 9]: 0.230%
Change In Mass (%) - ref, Sorption [3, 9]: 6.594%
Change In Mass (%) - ref, Desorption [3, 10]: 6.838%
Change In Mass (%) - ref, Sorption [3, 10]: 6.838%
Change In Mass (%) - ref, Sorption ([3]; DVS Cycle 2, target 0.0 % P/Po, 24.8° C.): 0.002%
Change In Mass (%) - ref, Sorption ([3]; DVS Cycle 2, target 10.0 % P/Po, 24.8° C.): 0.312%
Change In Mass (%) - ref, Sorption ([3]; DVS Cycle 2, target 20.0 % P/Po, 24.8° C.): 0.853%
Change In Mass (%) - ref, Sorption ([3]; DVS Cycle 2, target 30.0 % P/Po, 24.8° C.): 3.253%
Change In Mass (%) - ref, Desorption [3, 11]: 4.601%
Change In Mass (%) - ref, Hysteresis [3, 11]: 0.375%
Change In Mass (%) - ref, Sorption [3, 11]: 4.225%
Change In Mass (%) - ref, Desorption [3, 12]: 5.295%
Change In Mass (%) - ref, Hysteresis [3, 12]: 0.495%
Change In Mass (%) - ref, Sorption [3, 12]: 4.800%
Change In Mass (%) - ref, Desorption [3, 13]: 5.715%
Change In Mass (%) - ref, Hysteresis [3, 13]: 0.466%
Change In Mass (%) - ref, Sorption [3, 13]: 5.248%
Change In Mass (%) - ref, Desorption [3, 14]: 6.129%
Change In Mass (%) - ref, Hysteresis [3, 14]: 0.423%
Change In Mass (%) - ref, Sorption [3, 14]: 5.706%
Change In Mass (%) - ref, Desorption [3, 15]: 6.446%
Change In Mass (%) - ref, Hysteresis [3, 15]: 0.324%
Change In Mass (%) - ref, Sorption [3, 15]: 6.122%
Change In Mass (%) - ref, Desorption [3, 16]: 6.737%
Change In Mass (%) - ref, Hysteresis [3, 16]: 0.201%
Change In Mass (%) - ref, Sorption [3, 16]: 6.536%
Change In Mass (%) - ref, Desorption [3, 17]: 6.745%
Change In Mass (%) - ref, Sorption [3, 17]: 6.745%
Compound: O=C1CCc2c(Oc3ccc4c(c3)C[C@@H](c3nc(-c5ccc(F)cc5)c[nH]3)CO4)ccnc2N1 [Form A, (S)-5-((3-(4-(4-fluorophenyl)-1H-imidazol-2-yl)chroman-6-yl)oxy)-3,4-dihydro-1,8-naphthyridin-2(1H)-one]
stability of the crystalline form [2]: high degree of crystallinity and stability; also recorded: increased stability

Change In Mass (%) - ref, Desorption [3, 18]: 0.006%
Change In Mass (%) - ref, Sorption [3, 18]: 0.006%
Change In Mass (%) - ref, Desorption [3, 19]: 0.301%
Change In Mass (%) - ref, Hysteresis [3, 19]: 0.128%
Change In Mass (%) - ref, Sorption [3, 19]: 0.173%
Change In Mass (%) - ref, Desorption [3, 20]: 0.458%
Change In Mass (%) - ref, Hysteresis [3, 20]: 0.134%
Change In Mass (%) - ref, Sorption [3, 20]: 0.324%
Change In Mass (%) - ref, Desorption [3, 21]: 0.566%
Change In Mass (%) - ref, Hysteresis [3, 21]: 0.111%
Change In Mass (%) - ref, Sorption [3, 21]: 0.455%
Change In Mass (%) - ref, Desorption [3, 22]: 0.649%
Change In Mass (%) - ref, Hysteresis [3, 22]: 0.075%
Change In Mass (%) - ref, Sorption [3, 22]: 0.574%
Change In Mass (%) - ref, Sorption ([3]; DVS Cycle 1, target 50.0 % P/Po, 24.9° C.): 0.690%
Change In Mass (%) - ref, Sorption ([3]; DVS Cycle 1, target 60.0 % P/Po, 24.9° C.): 0.813%
Change In Mass (%) - ref, Sorption ([3]; DVS Cycle 1, target 70.0 % P/Po, 24.9° C.): 0.964%
Change In Mass (%) - ref, Sorption ([3]; DVS Cycle 1, target 80.0 % P/Po, 24.9° C.): 1.160%
Change In Mass (%) - ref, Sorption ([3]; DVS Cycle 1, target 90.0 % P/Po, 24.9° C.): 1.601%
Change In Mass (%) - ref, Sorption ([3]; DVS Cycle 1, target 95.0 % P/Po, 24.9° C.): 1.911%
Change In Mass (%) - ref, Desorption [3, 23]: 0.156%
Change In Mass (%) - ref, Sorption [3, 23]: 0.156%
Change In Mass (%) - ref, Desorption [3, 24]: 0.718%
Change In Mass (%) - ref, Hysteresis [3, 24]: 0.355%
Change In Mass (%) - ref, Sorption [3, 24]: 0.363%
Change In Mass (%) - ref, Desorption [3, 25]: 1.060%
Change In Mass (%) - ref, Hysteresis [3, 25]: 0.495%
Change In Mass (%) - ref, Sorption [3, 25]: 0.565%
Change In Mass (%) - ref, Desorption [3, 26]: 1.291%
Change In Mass (%) - ref, Hysteresis [3, 26]: 0.539%
Change In Mass (%) - ref, Sorption [3, 26]: 0.752%
Change In Mass (%) - ref, Desorption [3, 27]: 1.459%
Change In Mass (%) - ref, Hysteresis [3, 27]: 0.532%
Change In Mass (%) - ref, Sorption [3, 27]: 0.927%
Change In Mass (%) - ref, Desorption ([3]; DVS Cycle 2, target 50.0 % P/Po, 24.9° C.): 1.595%
Change In Mass (%) - ref, Desorption ([3]; DVS Cycle 2, target 60.0 % P/Po, 24.9° C.): 1.711%
Change In Mass (%) - ref, Desorption ([3]; DVS Cycle 2, target 70.0 % P/Po, 24.9° C.): 1.813%
Change In Mass (%) - ref, Desorption ([3]; DVS Cycle 2, target 80.0 % P/Po, 24.9° C.): 1.901%
Change In Mass (%) - ref, Desorption ([3]; DVS Cycle 2, target 90.0 % P/Po, 24.9° C.): 1.964%
Change In Mass (%) - ref, Desorption ([3]; DVS Cycle 2, target 95.0 % P/Po, 24.9° C.): 1.911%
Compound: O=C1CCc2c(Oc3ccc4c(c3)C[C@@H](c3nc(-c5ccc(F)cc5)c[nH]3)CO4)ccnc2N1 [Form F, (S)-5-((3-(4-(4-fluorophenyl)-1H-imidazol-2-yl)chroman-6-yl)oxy)-3,4-dihydro-1,8-naphthyridin-2(1H)-one]
stability of the crystalline form [2]: high degree of crystallinity and stability; also recorded: increased stability
